From ChEMBL document CHEMBL4028904, “Discovery of a Novel Series of Tankyrase Inhibitors by a Hybridization Approach” (J Med Chem, 2017)

How the values were obtained:
[1] = molecular target: T1, Poly [ADP-ribose] polymerase tankyrase-2 (Homo sapiens, UniProt Q9H2K2); experiment: Inhibition of TNKS2 (unknown origin) expressed in HEK293 cells assessed as inhibition of Wnt3a-induced Wnt/beta-catenin signaling after 24 hrs by luciferase reporter gene assay; type: cell-based
T1 sequence (Q9H2K2 whole entry): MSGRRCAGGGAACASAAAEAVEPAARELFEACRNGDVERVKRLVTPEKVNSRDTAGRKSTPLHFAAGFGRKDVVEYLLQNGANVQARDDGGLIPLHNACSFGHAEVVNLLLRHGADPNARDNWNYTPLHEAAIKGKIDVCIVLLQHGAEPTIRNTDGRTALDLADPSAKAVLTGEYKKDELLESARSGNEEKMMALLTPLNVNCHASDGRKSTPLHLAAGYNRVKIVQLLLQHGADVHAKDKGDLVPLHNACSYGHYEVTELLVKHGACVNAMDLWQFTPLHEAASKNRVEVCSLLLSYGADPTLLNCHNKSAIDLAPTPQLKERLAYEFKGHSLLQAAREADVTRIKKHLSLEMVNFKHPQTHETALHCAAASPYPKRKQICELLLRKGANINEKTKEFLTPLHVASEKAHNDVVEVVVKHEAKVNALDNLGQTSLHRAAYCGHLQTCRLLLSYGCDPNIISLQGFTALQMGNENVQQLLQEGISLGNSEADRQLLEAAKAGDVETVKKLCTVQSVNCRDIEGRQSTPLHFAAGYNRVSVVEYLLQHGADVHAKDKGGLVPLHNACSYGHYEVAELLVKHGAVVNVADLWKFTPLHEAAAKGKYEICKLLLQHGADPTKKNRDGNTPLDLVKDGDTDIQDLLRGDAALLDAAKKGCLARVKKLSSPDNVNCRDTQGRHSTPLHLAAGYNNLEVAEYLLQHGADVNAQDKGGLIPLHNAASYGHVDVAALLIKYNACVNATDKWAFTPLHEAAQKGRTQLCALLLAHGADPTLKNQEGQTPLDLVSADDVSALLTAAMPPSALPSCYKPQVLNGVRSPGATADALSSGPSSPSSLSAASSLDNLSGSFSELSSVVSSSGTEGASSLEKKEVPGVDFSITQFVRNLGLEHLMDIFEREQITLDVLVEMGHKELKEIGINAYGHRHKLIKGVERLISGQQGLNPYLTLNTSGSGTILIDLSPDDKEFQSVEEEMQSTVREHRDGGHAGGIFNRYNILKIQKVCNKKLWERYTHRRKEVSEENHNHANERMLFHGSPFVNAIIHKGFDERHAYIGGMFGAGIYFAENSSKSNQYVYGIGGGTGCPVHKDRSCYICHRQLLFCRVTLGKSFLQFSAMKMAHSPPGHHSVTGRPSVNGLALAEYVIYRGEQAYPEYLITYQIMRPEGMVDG

[2] = molecular target: T1, Poly [ADP-ribose] polymerase tankyrase-2; experiment: Inhibition of TNKS2 (unknown origin) transfected in human SW480 cells assessed as inhibition of Wnt3a-induced Wnt/beta-catenin signaling after 48 hrs by ST-luciferase reporter gene assay; type: cell-based
[3] = molecular target: T1, Poly [ADP-ribose] polymerase tankyrase-2; experiment: Inhibition of human TNKS2 (873 to 1162 residues) assessed as reduction in NAD+ consumption by fluorescence assay

- IC50 [1]: 200 nM
- IC50 [2]: 410 nM
- IC50 [3]: 9.8 nM
SMILES: O=c1[nH]c2ccccc2n1[C@H]1C[C@H](c2nnc(-c3ccncn3)n2-c2ccccc2Cl)C1
